ChEMBL document CHEMBL2440076, “New triarylpyrazoles as broad-spectrum anticancer agents: design, synthesis, and biological evaluation” (Eur J Med Chem, 2013)

Assays:
[1] = test system: UO-31; test: Growth inhibition of human UO31 cells assessed as cell growth at 10 uM after 48 hrs by sulforhodamine B assay; format: functional; settings: UO-31, 48 h, read-out: Activity
[2] = Growth inhibition of human HCC2998 cells after 48 hrs by sulforhodamine B assay; format: functional; settings: HCC 2998, 48 h
[3] = test system: SNB-19; test: Growth inhibition of human SNB19 cells assessed as cell growth at 10 uM after 48 hrs by sulforhodamine B assay; format: functional; settings: SNB-19, 48 h, read-out: Activity
[4] = test system: HL-60(TB); test: Growth inhibition of human HL-60(TB) cells after 48 hrs by sulforhodamine B assay; format: functional; settings: HL-60, 48 h
[5] = test system: 786-0; test: Growth inhibition of human 786-0 cells assessed as cell growth at 10 uM after 48 hrs by sulforhodamine B assay; format: functional; settings: 786-0, 48 h, read-out: Activity
[6] = test system: PC-3; test: Growth inhibition of human PC3 cells assessed as cell growth at 10 uM after 48 hrs by sulforhodamine B assay; format: functional; settings: PC-3, 48 h, read-out: Activity
[7] = test system: UACC-257; test: Growth inhibition of human UACC257 cells after 48 hrs by sulforhodamine B assay; format: functional; settings: UACC-257, 48 h
[8] = test system: ACHN; test: Growth inhibition of human ACHN cells after 48 hrs by sulforhodamine B assay; format: functional
[9] = test system: UACC-62; test: Growth inhibition of human UACC62 cells after 48 hrs by sulforhodamine B assay; format: functional; settings: UACC-62, 48 h
[10] = test system: SK-OV-3; test: Growth inhibition of human SKOV3 cells assessed as cell growth at 10 uM after 48 hrs by sulforhodamine B assay; format: functional; settings: SK-OV-3, 48 h, read-out: Activity
[11] = test system: Malme-3M; test: Growth inhibition of human MALME-3M cells assessed as cell growth at 10 uM after 48 hrs by sulforhodamine B assay; format: functional; settings: read-out: Activity
[12] = test system: OVCAR-3; test: Growth inhibition of human OVCAR3 cells after 48 hrs by sulforhodamine B assay; format: functional, cell-based; settings: OVCAR-3, 48 h
[13] = test system: SK-MEL-28; test: Growth inhibition of human SK-MEL-28 cells after 48 hrs by sulforhodamine B assay; format: functional; settings: SK-MEL-28, 48 h
[14] = test system: SNB-19; test: Growth inhibition of human SNB19 cells after 48 hrs by sulforhodamine B assay; format: functional; settings: SNB-19, 48 h
[15] = test system: HT-29; test: Growth inhibition of human HT-29 cells after 48 hrs by sulforhodamine B assay; format: functional; settings: HT-29, 48 h
[16] = test system: NCI-H460; test: Growth inhibition of human NCI-H460 cells assessed as cell growth at 10 uM after 48 hrs by sulforhodamine B assay; format: functional; settings: NCI-H460, 48 h, read-out: Activity
[17] = test system: NCI-H23; test: Growth inhibition of human NCI-H23 cells after 48 hrs by sulforhodamine B assay; format: functional; settings: NCI-H23, 48 h
[18] = test system: HT-29; test: Growth inhibition of human HT-29 cells assessed as cell growth at 10 uM after 48 hrs by sulforhodamine B assay; format: functional; settings: HT-29, 48 h, read-out: Activity
[19] = test system: SK-MEL-2; test: Growth inhibition of human SK-MEL-2 cells assessed as cell growth at 10 uM after 48 hrs by sulforhodamine B assay; format: functional; settings: SK-MEL-2, 48 h, read-out: Activity
[20] = test system: SF-268; test: Growth inhibition of human SF268 cells assessed as cell growth at 10 uM after 48 hrs by sulforhodamine B assay; format: functional; settings: SF-268, 48 h, read-out: Activity
[21] = test system: NCI-H23; test: Growth inhibition of human NCI-H23 cells assessed as cell growth at 10 uM after 48 hrs by sulforhodamine B assay; format: functional; settings: NCI-H23, 48 h, read-out: Activity
[22] = test system: HOP-62; test: Growth inhibition of human HOP62 cells assessed as cell growth at 10 uM after 48 hrs by sulforhodamine B assay; format: functional; settings: HOP-62, 48 h, read-out: Activity
[23] = test system: M14; test: Growth inhibition of human M14 cells assessed as cell growth at 10 uM after 48 hrs by sulforhodamine B assay; format: functional; settings: M14, 48 h, read-out: Activity
[24] = test system: OVCAR-8; test: Growth inhibition of human OVCAR8 cells assessed as cell growth at 10 uM after 48 hrs by sulforhodamine B assay; format: functional; settings: OVCAR-8, 48 h, read-out: Activity
[25] = test system: LOX IMVI; test: Growth inhibition of human LOXIMVI cells after 48 hrs by sulforhodamine B assay; format: functional
[26] = test system: COLO 205; test: Growth inhibition of human COLO205 cells assessed as cell growth at 10 uM after 48 hrs by sulforhodamine B assay; format: functional; settings: COLO 205, 48 h, read-out: Activity
[27] = test system: SK-OV-3; test: Growth inhibition of human SKOV3 cells after 48 hrs by sulforhodamine B assay; format: functional; settings: SK-OV-3, 48 h
[28] = test system: LOX IMVI; test: Growth inhibition of human LOXIMVI cells assessed as cell growth at 10 uM after 48 hrs by sulforhodamine B assay; format: functional; settings: read-out: Activity
[29] = test system: HCT-116; test: Growth inhibition of human HCT116 cells assessed as cell growth at 10 uM after 48 hrs by sulforhodamine B assay; format: functional; settings: HCT-116, 48 h, read-out: Activity
[30] = test system: SR; test: Growth inhibition of human SR cells after 48 hrs by sulforhodamine B assay; format: functional
[31] = test system: SK-MEL-5; test: Growth inhibition of human SK-MEL-5 cells after 48 hrs by sulforhodamine B assay; format: functional; settings: SK-MEL-5, 48 h
[32] = test system: HOP-92; test: Growth inhibition of human HOP92 cells after 48 hrs by sulforhodamine B assay; format: functional, cell-based; settings: HOP-92, 48 h
[33] = test system: M14; test: Growth inhibition of human M14 cells after 48 hrs by sulforhodamine B assay; format: functional; settings: M14, 48 h
[34] = test system: 786-0; test: Growth inhibition of human 786-0 cells after 48 hrs by sulforhodamine B assay; format: functional; settings: 786-0, 48 h
[35] = read-out: LC50 (the source's name)

Compound `COc1cc(-c2nn(-c3cccc(NC(=O)Nc4cccc(C(F)(F)F)c4)c3)cc2-c2ccncc2)ccc1Cl` has a growth at 10 µM [1] of 7.94%, a GI50 [2] of 1190 nM and a TGI [2] of 3200 nM. The CC50 [2, 35] was 15300 nM, the growth at 10 µM [3] was 23.5% and the GI50 [4] was 1370 nM. The TGI [4] was > 50000 nM, the CC50 [4, 35] was > 50000 nM and the growth at 10 µM [5] was -15%. It also gave a growth at 10 µM [6] of -23%, a GI50 [7] of 923 nM and a TGI [7] of 2310 nM. For the same compound, the CC50 [7, 35] was 7580 nM, the GI50 [8] was 656 nM and the TGI [8] was 3720 nM. The CC50 [8, 35] was > 50000 nM, the GI50 [9] was 725 nM and the LC50 (50% lethal concentration) [9] was 3480 nM. For the same compound, the TGI [9] was 1590 nM, the growth at 10 µM [10] was 4.13% and the growth at 10 µM [11] was -32.1%. It also gave a GI50 [12] of 579 nM, an IC50 [12] of 580 nM and a TGI [12] of 1870 nM. For the same compound, the CC50 [12, 35] was 24700 nM, the GI50 [13] was 1120 nM and the LC50 [13] was 21100 nM. The TGI [13] was 3350 nM, the GI50 [14] was 981 nM and the LC50 (concentration killing 50% of cells) [14] was > 50000 nM. It also gave a TGI [14] of 4000 nM, a GI50 [15] of 748 nM and a TGI [15] of 1870 nM. It also gave a CC50 [15, 35] of 4670 nM, a growth at 10 µM [16] of -7.91% and a GI50 [17] of 1180 nM. The LC50 [17] was > 50000 nM, the TGI [17] was 3410 nM and the growth at 10 µM [18] was -64%. It also gave a growth at 10 µM [19] of -71.2%, a growth at 10 µM [20] of 2.35% and a growth at 10 µM [21] of -12.4%. It also gave a growth at 10 µM [22] of -29.9%, a growth at 10 µM [23] of -61.5% and a growth at 10 µM [24] of -36.2%. The GI50 [25] was 789 nM, the LC50 [25] was 3460 nM and the TGI [25] was 1650 nM. The growth at 10 µM [26] was -88.9%, the GI50 [27] was 2020 nM and the TGI [27] was > 50000 nM. The CC50 [27, 35] was > 50000 nM, the growth at 10 µM [28] was -64.2% and the growth at 10 µM [29] was 0.06%. For the same compound, the GI50 [30] was 886 nM, the TGI [30] was 2840 nM and the CC50 [30, 35] was > 50000 nM. For the same compound, the GI50 [31] was 720 nM, the LC50 (concentration killing 50% of cells) [31] was 2680 nM and the TGI [31] was 1390 nM. The GI50 [32] was 557 nM, the IC50 [32] was 560 nM and the LC50 [32] was > 50000 nM. The TGI [32] was 1770 nM, the GI50 [33] was 754 nM and the LC50 (concentration killing 50% of cells) [33] was 4650 nM. The TGI [33] was 1870 nM, the GI50 [34] was 1280 nM and the TGI [34] was 4050 nM. For the same compound, the CC50 [34, 35] was > 50000 nM.
